The values that follow are results of earlier work, collected in patent publication US20110287061A1 (priority 2010, published 2011).

One data set relates to hair loss. Conditions: administered together with Saw Palmetto; individuals with mild to moderate hair loss.
Data set [1] has as its system gray hair. Conditions: 50 patients with gray hair, daily administration for two months.
In data set [2] the test system is gray hair. Conditions: of 20 patients taking varying amounts daily for other conditions.

The structures appear in SMILES notation.

As to `CC[C@H](CC[C@@H](C)[C@H]1CC[C@H]2[C@@H]3CC=C4C[C@@H](O)CC[C@]4(C)[C@H]3CC[C@]12C)C(C)C` [beta-sitosterol], in the data set on hair loss, the hair growth entry was “healthy hair growth”.
In the case of `Nc1ccc(C(=O)O)cc1` [PABA, 4-aminobenzoic acid], the hair colour change entry in the data set with gray hair [1] is recorded as “marked darkening of the hair”. In addition, the “cases of dramatic hair color change and hair re-growth” value with gray hair [2] is 5 cases.
